Measured values published in patent publication US5773628A, “1,2-dioxetane compounds with haloalkoxy groups, methods preparation and use” (Tropix, Inc., priority 1994, dated 1998).
“Also recorded” adds a separate entry of the source.

Experiments:
[1] = Base-induced decomposition of hydroxy dioxetanes (first order decay of chemiluminescence); type: physicochemical; settings: 37° C.; 0.2M 2-methyl-2-amino-1-propanol buffer pH 9.6, 0.88 mM Mg+2, 1.0 mg/mL Enhancer A
Description: (§1) Calf intestinal alkaline phosphatase (AP) was obtained from Biozyme (San Diego, Calif.). Other chemical reagents were obtained from Aldrich Chemical Co. (Milwaukee). Nuclear magnetic resonance (NMR) spectra were obtained on a Varian Gemini 300 spectrometer as solutions in D2 O or CDCl3. Chemiluminescence intensities and rate measurements were performed using either a Turner Designs (Sunnyvale, Calif.) model TD-20e luminometer, a Luminoskan luminometer (Helsinki, Finland), a charge-coupled device camera luminometer constructed in the inventors' laboratory or a luminometer constructed in the inventors' laboratory consisting of an electrically heated sample block, an optical fiber and associated optics for light collection and a photomultiplier tube. Temperature control of samples analyzed in the commercial luminometers was achieved by means of a circulating bath connected to the instrument. Quantitative measurement of light intensities on the Turner luminometer was extended beyond the 10^4 linear range of the detector by a neutral density filter. Data collection from each of the instruments was controlled by an Apple MacIntosh SE/30 computer using the LUMISOFT data reduction program (Lumigen).
The first order decay of chemiluminescence of dioxetanes 1 and 3 in 0.2M 2-methyl-2-amino-1-propanol buffer, pH 9.6 containing 0.88 mM Mg^+2 and 1.0 mg/mL of Enhancer A at 37° C. was measured in a luminometer. The half-life of decay of chemiluminescence (t1/2) of dioxetanes 1 and 3 in 0.2M 2-methyl-2-amino-1-propanol buffer, pH 9.6 containing 0.88 mM Mg^+2 and 1.0 mg/mL of Enhancer A correlate with the times required to reach the maximum light intensity (Imax) in the alkaline phosphatase-triggered decomposition of dioxetanes 2 and 5 in the same buffer solution. The half-life of decay of luminescence of the hydroxy dioxetane homologous to a phosphate-protected dioxetane, therefore, is useful for predicting the grow-in kinetics of light emission for phosphatase triggering of the corresponding phosphate dioxetane. In particular, hydroxy dioxetanes which show a faster t1/2 than dioxetane 1 indicate that the corresponding phosphate dioxetanes are expected to reach Imax more quickly. Other hydroxy dioxetanes (7-9) were then examined under the same conditions.

[2] = test system: Calf intestinal alkaline phosphatase (AP); assay: Kinetic profile of alkaline phosphatase-triggered chemiluminescence (time to 95% of maximum intensity); type: biochemical; settings: for Time to Reach 95% of Maximum Light Intensity from Alkaline Phosphatase-Triggering: 37° C.
Description: as §1
The improvement in detection speed afforded by compositions containing the phosphate dioxetane 5 is shown in Table 2 through a comparison with dioxetane 2 of the times to reach 95% of the maximum chemiluminescence intensities produced by reaction with AP. Three different reagent compositions containing either dioxetane 2, 4-methoxy-4-(3-phosphoryloxy-phenyl)spiro[1,2-dioxetane-3,2'-tricyclo-[3.3.1.1^3,7 ]decane], disodium salt, (LUMIGEN PPD, Lumigen, Inc.) or 5 were reacted at 37° C. with AP. Composition A consists of 0.33 mM dioxetane in 0.2M 2-methyl-2-amino-1-propanol buffer (pH 9.6) containing 1.0 mg/mL 1-(tri-n-octylphosphoniummethyl)-4-(tri-n-butylphosphonium-methyl) benzene dichloride (Enhancer A); 100 μL portions were reacted with 3.36×10^-16 mol of enzyme. Composition B consists of 0.33 mM dioxetane in 0.2M 2-methyl-2-amino-1-propanol buffer (pH 9.6) containing 0.5 mg/mL of polyvinylbenzyl-tributylphosphon ium chloride co-polyvinylbenzyltrioctyl-phosphonium chloride (containing a 3:1 ratio of tributyl:trioctyl groups) the preparation of which is described in European Patent Application 561,033 published Sep. 22, 1993 (Enhancer B); 100 μL portions were reacted with 3.36×10^-16 mol of enzyme. Composition C consists of 0.33 mM dioxetane in 0.2M 2-methyl-2-amino-1-propanol buffer (pH 9.6); 500 μL portions were reacted with 1.12×10^-15 mol of enzyme.

[3] = test system: Calf intestinal alkaline phosphatase (AP); assay: Chemiluminescent detection of alkaline phosphatase on membrane; type: biochemical; settings: 1 mg/mL Enhancer A, pH 9.6, 0.33 mM dioxetane, AP 1.1 fmol to 1.1 amol, X-ray film (FIG. 6)
Description: FIG. 6 is a digitally scanned image of an X-ray film from an experiment detecting alkaline phosphatase on a membrane with chemiluminescence. Solutions of alkaline phosphatase in water containing from 1.1×10^-15 to 1.1×10^-18 mol were applied to identical nylon membranes (Micron Separations Inc., Westboro, Mass). The membranes were air dried for 5 min and soaked briefly with a reagent containing 1 mg/mL of Enhancer A in 0.2M 2-amino-2-methyl-1-propanol buffer, pH 9.6 containing 0.88 mM MgCl and either 0.33 mM dioxetane 2 or 0.33 mM dioxetane 5. The membranes were placed between transparent plastic sheets and exposed to X-ray film (Kodak X-OMAT AR, Rochester, N.Y.).
Calf intestinal alkaline phosphatase (AP) was obtained from Biozyme (San Diego, Calif.). Other chemical reagents were obtained from Aldrich Chemical Co. (Milwaukee). Nuclear magnetic resonance (NMR) spectra were obtained on a Varian Gemini 300 spectrometer as solutions in D2 O or CDCl3. […] Temperature control of samples analyzed in the commercial luminometers was achieved by means of a circulating bath connected to the instrument. Quantitative measurement of light intensities on the Turner luminometer was extended beyond the 10^4 linear range of the detector by a neutral density filter. […]

[4] = test system: Calf intestinal alkaline phosphatase (AP); assay: Relative chemiluminescence quantum yields (total light after complete dephosphorylation by AP); type: biochemical
Description: as §1
The relative chemiluminescence quantum yields of dioxetanes 2 and 5 were determined in formulations containing 1 mg/mL or 0.1 mg/mL of Enhancer A in 0.2M 2-amino-2-methyl- 1-propanol buffer, pH 9.6 containing 0.88 mM Mg^+2. A 100 μL aliquot of each reagent was completely dephosphorylated by addition of 3.36×10^-13 mol of alkaline phosphatase. The total amount of light emitted in Relative Light Units (RLU) was integrated until light emission ceased. A similar comparison was also made with 500 μL portions of formulations without any enhancer using 0.75M 2-amino-2-methyl-1-propanol buffer, pH 9.6 containing 0.88 mM Mg^+2.

[5] = test system: Calf intestinal alkaline phosphatase (AP); assay: Effect of enhancer concentration on AP-induced chemiluminescence intensity and kinetics; comparison of optimized solutions; type: biochemical
Description: FIG. 1 is a graph showing the time profiles of the chemiluminescence intensity emitted by 100 μL of a reagent containing dioxetane 5 (4-(2,2,2-trifluoroethoxy)-4-(3-phosphoryloxyphenyl)spiro[1,2-dioxetane-3,2'-tricyclo-[3.3.1.1^3,7 ]decane] disodium salt) and various amounts of an enhancer triggered at 37° C. by addition of 1.12×10^-17 mol of alkaline phosphatase (AP). The reagent consists of a 0.33 mM solution of the dioxetane 5 in 0.2M 2-amino-2-methyl-1-propanol buffer, pH 9.6 containing 0.1, 0.25, 0.5 or 1 mg/mL of 1-(tri-n-octylphosphoniummethyl)-4-(tri-n-butyl-phosphoniummethyl)benzene dichloride (Enhancer A).
FIG. 2 is a graph showing a comparison of the time profile of the chemiluminescence intensity emitted by 100 μL of a reagent containing dioxetane 5 and various amounts of an enhancer triggered at 37° C. by addition of 1.12×10^-17 mol of AP. The reagents consist of a 0.33 mM solution of dioxetane 5 in 0.2M 2-amino-2-methyl-1-propanol buffer, pH 9.6 containing 0.01, 0.025, 0.1 or 0.5 mg/mL of polyvinylbenzyltributylphosphonium chloride co-polyvinylbenzyltri-octylphosphonium chloride (containing a 3:1 ratio of tributyl:trioctyl groups), Enhancer B, the preparation of which is described in European Patent Application 561,033 published Sep. 22, 1993.
FIG. 3 is a graph showing a comparison of the time profile of the chemiluminescence intensity emitted by 100 μL of enhanced reagents containing either dioxetane 2 (LUMIGEN PPD, Lumigen, Inc., Southfield, Mich.) or 5 triggered at 37° C. by addition of 1.12×10^-17 mol of AP. The reagents consist of 1) a 0.33 mM solution of dioxetane 2 in 0.2M 2-amino-2-methyl-1-propanol buffer, pH 9.6 containing 1.0 mg/mL of the enhancer 1-(tri-n-octylphosphoniummethyl)-4-(tri-n-butylphosphoniummethyl) benzene dichloride, and 2) a 0.33 mM solution of dioxetane 5 in 0.2M 2-amino-2-methyl-1-propanol buffer, pH 9.6 containing 0.1 mg/mL of the same enhancer.
FIG. 4 is a graph showing a comparison of the time profile of the chemiluminescence intensity emitted by 100 μL of another pair of enhanced reagents containing either dioxetane 2 or 5 triggered at 37° C. by addition of 1.12×10^-17 mol of AP. The reagents consist of 1) a 0.33 mM solution of dioxetane 2 in 0.2M 2-amino-2-methyl-1-propanol buffer, pH 9.6 containing 0.5 mg/mL of Enhancer B and 2) a 0.33 mM solution of dioxetane 5 in 0.2M 2-amino-2-methyl-1-propanol buffer, pH 9.6 containing 0.25 mg/mL of the same enhancer.
as §1
A concentration dependence study was conducted in an effort to find the optimum amount of enhancer A to use in the alkaline phosphatase-induced chemiluminescent reaction of dioxetane 5. Solutions of dioxetane 5 in 0.2M 2-methyl-2-amino-1-propanol buffer, pH 9.6 containing 0.88 mM Mg^+2 and 1, 0.5, 0.25 or 0.1 mg/mL of Enhancer A were prepared. […]

[6] = Composition A: 0.33 mM dioxetane, 0.2M 2-methyl-2-amino-1-propanol buffer pH 9.6, 1.0 mg/mL Enhancer A, 100 μL, 3.36×10^-16 mol AP
[7] = Composition B: 0.33 mM dioxetane, buffer pH 9.6, 0.5 mg/mL Enhancer B, 100 μL, 3.36×10^-16 mol AP
[8] = Composition C: 0.33 mM dioxetane, buffer pH 9.6, no enhancer, 500 μL, 1.12×10^-15 mol AP
[9] = Enhancer A 1 mg/mL, 100 μL, 0.2M buffer pH 9.6, 3.36×10^-13 mol AP
[10] = No enhancer, 500 μL, 0.75M 2-amino-2-methyl-1-propanol buffer pH 9.6, 0.88 mM Mg+2

Row | Compound | t1/2 of decay of chemiluminescence [1] [min] | Time to Reach 95% of Maximum Light Intensity from Alkaline Phosphatase-Triggering [2, 6] [min] | Time to Reach 95% of Maximum Light Intensity from Alkaline Phosphatase-Triggering [2, 7] [min] | Time to Reach 95% of Maximum Light Intensity from Alkaline Phosphatase-Triggering [2, 8] [min] | Total Light Intensity [4, 9] | Total Light Intensity [4, 10] | other results
1 | Oc1cccc(C2(OCC(F)(F)F)OOC23C2CC4CC(C2)CC3C4)c1 (stereo not drawn) [Dioxetane 3] | 2.0 |  |  |  |  |  | 
2 | O=P(O)(O)Oc1cccc(C2(OCC(F)(F)F)OOC23C2CC4CC(C2)CC3C4)c1 (stereo not drawn) [Dioxetane 5] |  | 6 | 4.3 | 4.5 | 1.23 × 10^7 RLU | 9.65 × 10^4 RLU | Plateau light intensity compared to dioxetane 2 ([2]; Composition A): higher plateau light intensity; Image intensity and detection sensitivity on nylon membrane compared to dioxetane 2 [3]: more intense images and better detection sensitivity; Total Light Intensity ([4]; Enhancer A 0.1 mg/mL, 100 μL, 0.2M buffer pH 9.6, 3.36×10^-13 mol AP): 1.01 × 10^7 RLU; Total light produced compared to dioxetane 2 ([4]; with or without Enhancer A): produces more light than dioxetane 2; Chemiluminescence intensity and time profile compared to dioxetane 2 (1 mg/mL Enhancer A) ([5]; 0.33 mM dioxetane 5 with 0.1 mg/mL Enhancer A, 37° C., 1.12×10^-17 mol AP (FIG. 3)): reaches a significantly higher maximum intensity and reaches a plateau much more rapidly; also recorded: more intense chemiluminescence under these conditions but also a shorter delay until the maximum intensity is reached; Chemiluminescence intensity and time profile compared to dioxetane 2 (0.5 mg/mL Enhancer B) ([5]; 0.33 mM dioxetane 5 with 0.25 mg/mL Enhancer B, 37° C., 1.12×10^-17 mol AP (FIG. 4)): reaches a higher light intensity in the first 15 minutes; also recorded: a higher light intensity within the first 15 min; Plateau light intensity and rise time vs. amount of Enhancer A ([5]; Enhancer A 1, 0.5, 0.25 or 0.1 mg/mL, pH 9.6, 37° C., 1.12×10^-17 mol AP (FIG. 1)): increasingly higher plateau light intensities and slower rise times as the amount of enhancer is reduced; Rise time vs. amount of Enhancer B ([5]; Enhancer B 0.5 to 0.01 mg/mL, pH 9.6, 37° C., 1.12×10^-17 mol AP (FIG. 2)): slower rise times as the amount of enhancer is reduced from 0.5 to 0.01 mg/mL
3 | COC1(c2cccc(O)c2)OOC12C1CC3CC(C1)CC2C3 (stereo not drawn) [Dioxetane 1] | 15.9 |  |  |  |  |  | 
4 | COC1(c2cccc(OP(=O)(O)O)c2)OOC12C1CC3CC(C1)CC2C3 (stereo not drawn) [Dioxetane 2] |  | 32 | 37 | 6 | 9.24 × 10^6 RLU | 4.41 × 10^4 RLU | Rise time to maximum light intensity ([5]; Enhancer B reduced from 3 mg/mL to 0.1 mg/mL): essentially constant at an hour or more; Rise time to maximum light intensity ([5]; all concentrations of Enhancer A from 0.1 mg/mL to 3 mg/mL): an hour or more
5 | Oc1cccc(C2(OCCF)OOC23C2CC4CC(C2)CC3C4)c1 (stereo not drawn) [Dioxetane 8] | 6.1 |  |  |  |  |  | 
6 | Oc1cccc(C2(OCC(F)F)OOC23C2CC4CC(C2)CC3C4)c1 (stereo not drawn) [Dioxetane 7] | 2.8 |  |  |  |  |  | 
